Measurements: US7932290B2, “Method for the treatment of metabolic disorders” (Wellstat Biologics Corporation, priority 2003, dated 2011)

Columns and labels:
[1] = target: T1, Mouse PPARγ LBD fusion protein (Mus musculus, UniProt P37238); assay: Transcription activation potential, GAL4 luciferase reporter in Hepa1.6 cells; assay type: cell-based
T1 sequence (P37238 238-503): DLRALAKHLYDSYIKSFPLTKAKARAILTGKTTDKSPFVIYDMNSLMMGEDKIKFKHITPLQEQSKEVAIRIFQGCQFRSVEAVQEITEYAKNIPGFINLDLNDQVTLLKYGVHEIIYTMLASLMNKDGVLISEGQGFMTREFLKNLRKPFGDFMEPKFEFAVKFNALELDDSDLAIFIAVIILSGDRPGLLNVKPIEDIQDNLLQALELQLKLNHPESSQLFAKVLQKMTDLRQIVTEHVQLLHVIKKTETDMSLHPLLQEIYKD
Description: Cells were seeded in 24 well plates the day prior to transfection at 5×10^4−2×10^5 cells/well, depending upon cell type. Cells were transfected using Lipofectamine 2000 reagent from Invitrogen. A total of 0.8 μg DNA/well was added to 50 μL of Optimem Reduced Serum media (serum free; Gibco). Lipofectamine 2000 was added (2.5 μL/well) to another tube containing 50 μL of Optimem media. Plasmid DNA was added at a ratio of 4:3 (reporter:activator); where appropriate, salmon sperm DNA was substituted for activator expressing plasmid. […] DNA constructs containing the mouse PPARα or PPARγ LBD fused to the GAL4 DNA binding domain were also used. The two solutions were incubated at room temperature for 5 min, and then combined. The combined solution was incubated at room temperature for approximately 30 min. Cells were washed once with PBS, and 100 μL of transfection mix added to each well. Plates were incubated at 37° C. in a 5% CO2 incubator for 4.5 hr, followed by aspiration of the transfection mix, with plates refed using EMEM complete media (supplemented with 10% FBS, 1× Glutamine). 24 hr post-transfection, plates were treated with the appropriate compounds in EMEM complete media, followed by washing once with PBS and addition of 100 μL 1× reporter lysis buffer/well (Promega) 24 hr after treatment. Plates went through one freeze/thaw cycle prior to analysis. Approximately 10 μL of lysate was added to 100 μL of firefly luciferase substrate, mixed by pipetting, and analyzed on a luminometer for 10 s using the integration function (relative luciferase units/RLU) or on a Microbeta Trilux (luciferase counts per second/LCPS). Each treatment was performed in triplicate, and in multiple, separate experiments.

[2] = tested on: db/db mice; assay: Antidiabetic effects in db/db mice, Example B (2 weeks daily oral dosing); assay type: in vivo, mouse
Description: db/db mice have a defect in leptin signaling, leading to hyperphagia, obesity and diabetes. Moreover, unlike ob/ob mice on a C57BL/6J background, db/db mice on a C57BL/KS background undergo failure of their insulin-producing pancreatic islet cells, resulting in progression from hyperinsulinemia (associated with peripheral insulin resistance) to hypoinsulinemic diabetes.
Male obese (db/db homozygote) C57BL/Ksola mice approximately 8 weeks of age, were obtained from Jackson Labs (Bar Harbor, Me.) and randomly assigned into groups of 5-7 animals such that the body weights (50-55 g) and serum glucose levels (≧300 mg/dl in fed state) were similar between groups; male lean (db/+heterozygote) mice served as cohort controls. A minimum of 7 days was allowed for adaptation after arrival. All animals were maintained under controlled temperature (23° C.), relative humidity (50±5%) and light (7:00-19:00), and allowed free access to standard chow (Formulab Diet 5008, Quality Lab Products, Elkridge, Md.) and water.
Treatment cohorts were given daily oral doses of Vehicle (1% hydroxypropylmethylcellulose), Compounds BI, CE, BT, BV, […] or Fenofibrate for 2 weeks. At the end of the treatment period 100 μl of venous blood was withdrawn in a heparinized capillary tube from the retro-orbital sinus of db/db mice for serum chemistry analysis.

[3] = serum, 2 weeks daily oral, dose not given in Table 17 (see Table 16)

Row | Compound | transcription activation potential (luciferase) ± standard deviation ([1]; 1 μM) | transcription activation potential (luciferase) ± standard deviation ([1]; 3 μM) | transcription activation potential (luciferase) ± standard deviation ([1]; 5 μM) | transcription activation potential (luciferase) ± standard deviation ([1]; 7 μM) | transcription activation potential (luciferase) ± standard deviation ([1]; 10 μM) | transcription activation potential (luciferase) ± standard deviation ([1]; 30 μM) | transcription activation potential (luciferase) ± standard deviation ([1]; 100 μM) | Glucose (% of Control) ([2]; 100 mg/kg daily oral, 2 weeks) | Glucose ([2]; nonfasting, 100 mg/kg daily oral, 2 weeks) | Free Fatty Acids ± SEM [2, 3] | Triglycerides ± SEM [2, 3]
1 | Cc1cccc(C)c1COc1cccc(CC(=O)O)c1 [Compound CF, 3-(2,6-Dimethylbenzyloxy)phenylacetic acid] | 361 ± 138 RLU | 602 ± 144 RLU | 710 ± 87 RLU | 786 ± 418 RLU | 1140 ± 111 RLU | 1253 ± 554 RLU | 1534 ± 608 RLU |  |  |  | 
2 | Cc1cccc(C)c1COc1cccc(C(=O)CCC(=O)O)c1 [Compound BI, 4-(3-(2,6-Dimethylbenzyloxy)phenyl)-4-oxobutyric acid] | 210 ± 51 RLU | 256 ± 33 RLU | 254 ± 81 RLU | 265 ± 61 RLU | 355 ± 53 RLU | 441 ± 203 RLU | 820 ± 353 RLU | 50 ± 6 % of Control | 347.0 ± 43.1 mg/dL | 1997.2 ± 196.4 µM | 77.8 ± 5.3 mg/dL
